{"source": "the supplement of paper PMC10307832", "assay_in_all_cases": "relative viability (nuclei count vs DMSO), 5 days (fraction); higher = more cells survive", "key": {"201T": {"system": "201T", "conditions": "first compound 20 µM", "summary_of_the_method": "(§1)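 Relative viability was taken as the ratio of nuclei in treated wells to nuclei in vehicle wells. Lung cancer cell lines in 1536-well plates received compounds by pin tool one day after seeding, either one drug alone or a fixed anchor-drug dose plus five library-drug doses (not always all listed) in √10 steps. Nuclei were counted on 4× images after 5 days of treatment, and values are medians of duplicate plates.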"}, "NCI-H2228": {"system": "NCI-H2228", "summary_of_the_method": "as §1"}, "ChaGo-K-1": {"system": "ChaGo-K-1", "summary_of_the_method": "as §1"}, "COR-L23": {"system": "COR-L23", "summary_of_the_method": "as §1"}, "NCI-H1993": {"system": "NCI-H1993", "summary_of_the_method": "as §1"}, "NCI-H1734": {"system": "NCI-H1734", "summary_of_the_method": "as §1"}, "NCI-H2170": {"system": "NCI-H2170", "summary_of_the_method": "as §1"}, "NCI-H2342": {"system": "NCI-H2342", "summary_of_the_method": "as §1"}, "HOP-62": {"system": "HOP-62", "summary_of_the_method": "as §1"}, "RERF-LC-KJ": {"system": "RERF-LC-KJ", "summary_of_the_method": "as §1"}, "NCI-H1395": {"system": "NCI-H1395", "summary_of_the_method": "as §1"}, "NCI-H2085": {"system": "NCI-H2085", "summary_of_the_method": "as §1"}}, "data": [{"compound": "COCC1(CO)C(=O)C2CCN1CC2", "note": "(stereo not drawn) [PRIMA-1MET] + Nc1nc2[nH]cc(CCc3ccc(C(=O)N[C@@H](CCC(=O)O)C(=O)O)cc3)c2c(=O)[nH]1 [Pemetrexed] (partner 0.2 µM)", "values": [{"measurement": "relative viability", "setting": "201T", "value": 0.328}, {"measurement": "relative viability", "setting": "NCI-H2228; first compound 0.2 µM", "value": 0.351}, {"measurement": "relative viability", "setting": "NCI-H2228; first compound 0.6325 µM", "value": 0.332}, {"measurement": "relative viability", "setting": "NCI-H2228; first compound 2 µM", "value": 0.3}, {"measurement": "relative viability", "setting": "NCI-H2228; first compound 6.325 µM", "value": 0.305}, {"measurement": "relative viability", "setting": "NCI-H2228; first compound 20 µM", "value": 0.0521}, {"measurement": "relative viability", "setting": "ChaGo-K-1; first compound 0.2 µM", "value": 0.249}, {"measurement": "relative viability", "setting": "ChaGo-K-1; first compound 0.6325 µM", "value": 0.261}, {"measurement": "relative viability", "setting": "ChaGo-K-1; first compound 2 µM", "value": 0.26}, {"measurement": "relative viability", "setting": "ChaGo-K-1; first compound 6.325 µM", "value": 0.247}, {"measurement": "relative viability", "setting": "ChaGo-K-1; first compound 20 µM", "value": 0.263}, {"measurement": "relative viability", "setting": "COR-L23; first compound 0.2 µM", "value": 0.184}, {"measurement": "relative viability", "setting": "COR-L23; first compound 0.6325 µM", "value": 0.199}, {"measurement": "relative viability", "setting": "COR-L23; first compound 2 µM", "value": 0.191}, {"measurement": "relative viability", "setting": "COR-L23; first compound 6.325 µM", "value": 0.192}, {"measurement": "relative viability", "setting": "COR-L23; first compound 20 µM", "value": 0.0784}, {"measurement": "relative viability", "setting": "NCI-H1993; first compound 0.2 µM", "value": 0.592}, {"measurement": "relative viability", "setting": "NCI-H1993; first compound 2 µM", "value": 0.592}, {"measurement": "relative viability", "setting": "NCI-H1993; first compound 6.325 µM", "value": 0.534}, {"measurement": "relative viability", "setting": "NCI-H1993; first compound 20 µM", "value": 0.557}, {"measurement": "relative viability", "setting": "NCI-H1734; first compound 0.2 µM", "value": 0.403}, {"measurement": "relative viability", "setting": "NCI-H1734; first compound 0.6325 µM", "value": 0.416}, {"measurement": "relative viability", "setting": "NCI-H1734; first compound 2 µM", "value": 0.433}, {"measurement": "relative viability", "setting": "NCI-H1734; first compound 6.325 µM", "value": 0.407}, {"measurement": "relative viability", "setting": "NCI-H1734; first compound 20 µM", "value": 0.0543}, {"measurement": "relative viability", "setting": "NCI-H2170; first compound 0.2 µM", "value": 0.271}, {"measurement": "relative viability", "setting": "NCI-H2170; first compound 0.6325 µM", "value": 0.25}, {"measurement": "relative viability", "setting": "NCI-H2170; first compound 2 µM", "value": 0.274}, {"measurement": "relative viability", "setting": "NCI-H2170; first compound 6.325 µM", "value": 0.258}, {"measurement": "relative viability", "setting": "NCI-H2170; first compound 20 µM", "value": 0.268}, {"measurement": "relative viability", "setting": "NCI-H2342; first compound 0.2 µM", "value": 0.789}, {"measurement": "relative viability", "setting": "NCI-H2342; first compound 0.6325 µM", "value": 0.852}, {"measurement": "relative viability", "setting": "NCI-H2342; first compound 6.325 µM", "value": 0.691}, {"measurement": "relative viability", "setting": "NCI-H2342; first compound 20 µM", "value": 0.753}, {"measurement": "relative viability", "setting": "HOP-62; first compound 0.2 µM", "value": 0.407}, {"measurement": "relative viability", "setting": "HOP-62; first compound 0.6325 µM", "value": 0.377}, {"measurement": "relative viability", "setting": "HOP-62; first compound 2 µM", "value": 0.36}, {"measurement": "relative viability", "setting": "HOP-62; first compound 6.325 µM", "value": 0.377}, {"measurement": "relative viability", "setting": "HOP-62; first compound 20 µM", "value": 0.122}, {"measurement": "relative viability", "setting": "RERF-LC-KJ; first compound 0.2 µM", "value": 0.49}, {"measurement": "relative viability", "setting": "RERF-LC-KJ; first compound 0.6325 µM", "value": 0.484}, {"measurement": "relative viability", "setting": "RERF-LC-KJ; first compound 2 µM", "value": 0.472}, {"measurement": "relative viability", "setting": "RERF-LC-KJ; first compound 6.325 µM", "value": 0.495}, {"measurement": "relative viability", "setting": "RERF-LC-KJ; first compound 20 µM", "value": 0.472}, {"measurement": "relative viability", "setting": "NCI-H1395; first compound 0.2 µM", "value": 0.842}, {"measurement": "relative viability", "setting": "NCI-H1395; first compound 2 µM", "value": 0.771}, {"measurement": "relative viability", "setting": "NCI-H1395; first compound 6.325 µM", "value": 0.881}, {"measurement": "relative viability", "setting": "NCI-H1395; first compound 20 µM", "value": 0.154}, {"measurement": "relative viability", "setting": "NCI-H2085; first compound 0.2 µM", "value": 0.936}, {"measurement": "relative viability", "setting": "NCI-H2085; first compound 0.6325 µM", "value": 0.925}, {"measurement": "relative viability", "setting": "NCI-H2085; first compound 2 µM", "value": 0.549}, {"measurement": "relative viability", "setting": "NCI-H2085; first compound 6.325 µM", "value": 0.862}, {"measurement": "relative viability", "setting": "NCI-H2085; first compound 20 µM", "value": 0.165}]}]}
